From the supplement of paper PMC10307832

Key:
Test in all cases: relative viability (nuclei count vs DMSO), 5 days (fraction); higher = more cells survive
VX-702 + Pictilisib = compound: NC(=O)c1ccc(N(C(N)=O)c2c(F)cccc2F)nc1-c1ccc(F)cc1F [VX-702] + CS(=O)(=O)N1CCN(Cc2cc3nc(-c4cccc5[nH]ncc45)nc(N4CCOCC4)c3s2)CC1 [Pictilisib] (partner 1 µM)
Method in brief: (§1)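 Cells from lung cancer lines were seeded into 1536-well plates and, one day later, dosed by pin tool. Treatments were either a single drug or a fixed dose of an anchor drug with five library-drug doses (not always all listed) in √10 steps. After 5 days, nuclei were stained in a one-step fixation (final 0.05% Triton X-100, 1% formaldehyde, 1 ug/ml Hoechst) and counted on 4× images, and relative viability is the treated-to-vehicle nuclei ratio, as the median of duplicate plates.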

VX-702 + Vorinostat = compound: NC(=O)c1ccc(N(C(N)=O)c2c(F)cccc2F)nc1-c1ccc(F)cc1F [VX-702] + O=C(CCCCCCC(=O)Nc1ccccc1)NO [Vorinostat] (partner 1 µM)
Method in brief: as §1

Dabrafenib + Pemetrexed = compound: CC(C)(C)c1nc(-c2cccc(NS(=O)(=O)c3c(F)cccc3F)c2F)c(-c2ccnc(N)n2)s1 [Dabrafenib] + Nc1nc2[nH]cc(CCc3ccc(C(=O)N[C@@H](CCC(=O)O)C(=O)O)cc3)c2c(=O)[nH]1 [Pemetrexed] (partner 0.2 µM)
Method in brief: as §1

Dabrafenib + Olaparib = compound: CC(C)(C)c1nc(-c2cccc(NS(=O)(=O)c3c(F)cccc3F)c2F)c(-c2ccnc(N)n2)s1 [Dabrafenib] + O=C(c1cc(Cc2n[nH]c(=O)c3ccccc23)ccc1F)N1CCN(C(=O)C2CC2)CC1 [Olaparib] (partner 8 µM)
Method in brief: as §1

Cell Line | relative viability (VX-702 + Pictilisib; first compound 0.02 µM) | relative viability (VX-702 + Pictilisib; first compound 0.2 µM) | relative viability (VX-702 + Pictilisib; first compound 0.6325 µM) | relative viability (VX-702 + Pictilisib; first compound 2 µM) | relative viability (VX-702 + Vorinostat; first compound 0.02 µM) | relative viability (VX-702 + Vorinostat; first compound 0.2 µM) | relative viability (VX-702 + Vorinostat; first compound 0.6325 µM) | relative viability (VX-702 + Vorinostat; first compound 2 µM) | relative viability (Dabrafenib + Pemetrexed; first compound 0.003 µM) | relative viability (Dabrafenib + Pemetrexed; first compound 0.009487 µM) | relative viability (Dabrafenib + Pemetrexed; first compound 0.03 µM) | relative viability (Dabrafenib + Pemetrexed; first compound 0.09487 µM) | relative viability (Dabrafenib + Pemetrexed; first compound 0.3 µM) | relative viability (Dabrafenib + Olaparib; first compound 0.003 µM) | relative viability (Dabrafenib + Olaparib; first compound 0.009487 µM) | relative viability (Dabrafenib + Olaparib; first compound 0.03 µM) | relative viability (Dabrafenib + Olaparib; first compound 0.09487 µM) | relative viability (Dabrafenib + Olaparib; first compound 0.3 µM)
NCI-H1650 | 0.641 | 0.326 | 0.596 | 0.586 | 0.479 | 0.624 | 0.776 | 0.583 | 0.364 | 0.391 | 0.389 | 0.389 | 0.419 | 0.827 | 0.721 | 0.764 | 0.794 | 1.01
CAL-12T | 0.482 | 0.185 | 0.536 | 0.534 | 0.688 | 0.744 | 0.725 | 1.04 | 1.21 | 1.44 | 1.18 | 1.08 | 1.14 | 0.657 | 0.685 | 0.671 | 0.574 | 0.76
HCC-15 | 0.731 | 0.644 | 0.643 | 0.749 | 0.813 | 0.803 | 0.854 | 0.858 | 0.221 | 0.225 | 0.227 | 0.212 | 0.215 | 0.716 | 0.673 | 0.743 | 0.578 | 0.63
LC-2-ad | 0.472 | 0.45 | 0.446 | 0.433 | 0.693 | 0.678 | 0.773 | 0.803 | 0.271 | 0.283 | 0.25 | 0.269 | 0.286 | 0.69 | 0.668 | 0.709 | 0.647 | 0.698
NCI-H520 | 0.282 | 0.216 | 0.25 | 0.306 | 0.744 | 0.649 | 0.691 | 0.74 | 0.697 | 0.6 | 0.625 | 0.669 | 0.652 | 0.312 | 0.317 | 0.305 | 0.271 | 0.354
LOU-NH91 | 0.545 | 0.489 | 0.491 | 0.53 | 0.957 | 0.845 | 0.895 | 0.857 |  | 0.34 | 0.403 | 0.409 | 0.409 |  | 0.923 | 0.918 | 0.889 | 0.969
NCI-H1355 | 0.514 | 0.439 | 0.338 | 0.46 | 0.694 | 0.605 | 0.689 | 0.821 |  | 1.09 | 0.965 | 0.804 | 1.08 |  | 0.763 | 0.769 | 0.639 | 0.718
LCLC-97TM1 | 0.148 | 0.21 | 0.121 | 0.192 | 0.732 | 0.787 | 0.782 | 0.878 |  | 0.198 | 0.198 | 0.124 | 0.139 |  | 0.317 | 0.472 | 0.262 | 0.35
LCLC-103H | 0.638 | 0.621 | 0.666 | 0.613 | 0.813 | 0.799 | 0.835 | 0.839 | 0.473 | 0.455 | 0.532 | 0.42 | 0.4 | 0.716 | 0.733 | 0.687 | 0.801 | 0.747
LK-2 | 0.457 |  | 0.385 | 0.594 | 0.258 | 0.275 | 0.283 | 0.385 | 0.249 | 0.239 |  | 0.253 | 0.301 | 0.737 | 0.706 |  | 0.498 | 0.796
RERF-LC-KJ | 0.562 | 0.435 | 0.625 | 0.601 | 0.693 | 0.686 | 0.716 | 0.694 | 0.491 | 0.525 | 0.477 | 0.501 | 0.536 | 0.907 | 1 | 0.895 | 0.774 | 0.932
ChaGo-K-1 | 0.73 | 0.3 | 0.591 | 1.12 | 0.84 | 0.7 | 0.79 | 0.795 | 0.219 | 0.256 | 0.263 | 0.246 | 0.26 | 0.458 | 0.413 | 0.404 | 0.312 | 0.455
NCI-H1395 | 0.572 | 0.595 | 0.607 | 0.662 | 0.701 | 0.686 | 0.683 | 0.884 |  | 0.813 | 0.907 | 0.749 | 0.806 |  | 0.497 | 0.473 | 0.456 | 0.495
LU99A | 0.316 | 0.297 | 0.292 | 0.318 | 0.412 | 0.452 | 0.49 | 0.485 | 0.25 | 0.192 | 0.181 | 0.161 | 0.183 | 0.296 | 0.278 | 0.257 | 0.236 | 0.272
SK-MES-1 | 0.342 | 0.293 | 0.364 | 0.313 | 1.09 | 1.08 | 1.06 | 1.11 |  | 0.952 | 0.915 | 0.86 | 0.742 | 0.582 | 0.671 | 0.627 | 0.567 | 0.393
